In patent publication US7253187B2, “Heterocyclic inhibitors of ERK2 and uses thereof” (Vertex Pharmaceuticals Incorporated, priority 2001, dated 2007):

How the values were obtained:
GSK-3β (AA 1–420) = molecular target: T1, GSK-3β (AA 1–420) (Homo sapiens, UniProt P49841); experiment: GSK-3 inhibition assay (coupled enzyme system); assay type: biochemical; conditions: read-out: GSK3 Inhibitory Activity (Ki class)
T1 construct: GSK-3β (AA 1–420)
Procedure: Final substrate concentrations in the assay were 20 μM ATP (Sigma Chemicals, St Louis, Mo.) and 300 μM peptide (HSSPHQS(PO3H2)EDEEE, American Peptide, Sunnyvale, Calif.). Reactions were carried out at 30° C. and 20 nM GSK-3β. Final concentrations of the components of the coupled enzyme system were 2.5 mM phosphoenolpyruvate, 300 μM NADH, 30 μg/ml pyruvate kinase and 10 μg/ml lactate dehydrogenase.
An assay stock buffer solution was prepared containing all of the reagents listed above with the exception of ATP and the test compound of interest. The assay stock buffer'solution (175 μl) was incubated in a 96 well plate with 5 μl of the test compound of interest at final concentrations spanning 0.002 μM to 30 μM at 30° C. for 10 min. […] The reaction was initiated by the addition of 20 μl of ATP (final concentration 20 μM). Rates of reaction were obtained using a Molecular Devices Spectramax plate reader (Sunnyvale, Calif.) over 10 min at 30° C. The Ki values were determined from the rate data as a function of inhibitor concentration.
The compound numbers correspond to the compound numbers in Table 1.

ERK2 = ERK2 (Homo sapiens, UniProt P28482); experiment: ERK2 inhibition assay (spectrophotometric coupled-enzyme assay); assay type: biochemical; conditions: read-out: ERK2 Inhibitory Activity (Ki class D-F)
Chain of ERK2 (P28482 whole entry): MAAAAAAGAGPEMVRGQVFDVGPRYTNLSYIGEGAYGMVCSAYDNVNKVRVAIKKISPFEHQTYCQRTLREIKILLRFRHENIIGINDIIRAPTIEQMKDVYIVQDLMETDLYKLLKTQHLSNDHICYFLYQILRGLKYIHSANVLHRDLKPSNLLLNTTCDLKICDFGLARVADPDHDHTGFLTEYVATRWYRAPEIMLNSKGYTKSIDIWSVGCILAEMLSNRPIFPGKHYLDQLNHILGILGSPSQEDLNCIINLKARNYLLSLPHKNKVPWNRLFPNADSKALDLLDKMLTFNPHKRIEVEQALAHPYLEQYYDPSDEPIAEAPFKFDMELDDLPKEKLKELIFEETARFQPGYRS
Procedure: The IC50 was evaluated from the rate data as a function of inhibitor concentration. […] The compound numbers correspond to the compound numbers in Table 1.

T1 sequence (P49841 whole entry, species assumed, the tested form may be a part): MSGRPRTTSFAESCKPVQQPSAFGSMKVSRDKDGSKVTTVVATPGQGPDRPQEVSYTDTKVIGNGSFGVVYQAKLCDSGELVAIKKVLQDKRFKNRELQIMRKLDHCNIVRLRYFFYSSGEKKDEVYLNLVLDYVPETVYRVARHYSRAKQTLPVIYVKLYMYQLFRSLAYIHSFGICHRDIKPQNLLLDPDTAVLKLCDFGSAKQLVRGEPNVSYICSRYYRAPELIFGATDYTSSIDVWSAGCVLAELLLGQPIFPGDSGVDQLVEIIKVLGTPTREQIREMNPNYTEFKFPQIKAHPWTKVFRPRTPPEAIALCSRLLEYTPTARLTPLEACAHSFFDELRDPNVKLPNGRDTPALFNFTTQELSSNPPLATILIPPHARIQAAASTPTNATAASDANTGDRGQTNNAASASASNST

Row | Ki (GSK-3β (AA 1–420)) | Ki (ERK2) | Compound
1 | < 100 nM | < 100 nM | Cc1ccc(C(CO)NC(=O)c2cc(-c3nc(Nc4cccc(F)c4)ncc3C)c[nH]2)cc1F (stereo not shown) [III-a-147, 4-[2-(3-Fluoro-phenylamino)-5-methyl-pyrimidin-4-yl]-1H-pyrrole-2-carboxylic acid [1-(3-fluoro-4-methyl-phenyl)-2-hydroxy-ethyl]-amide]
2 | > 1000 nM | 100 to 1000 nM | CCNc1ncc(C)c(-c2c[nH]c(C(=O)NC(C(=O)OC)c3ccccc3)c2)n1 (stereo not shown) [III-a-184, {[4-(2-Ethylamino-5-methyl-pyrimidin-4-yl)-1H-pyrrole-2-carbonyl]-amino}-phenyl-acetic acid methyl ester]
3 | > 1000 nM | < 100 nM | Cc1cnc(NC(CO)C(C)C)nc1-c1c[nH]c(C(=O)NC(CO)c2ccccc2)c1 (stereo not shown) [III-a-196, 4-[2-(1-Hydroxymethyl-2-methyl-propylamino)-5-methyl-pyrimidin-4-yl]-1H-pyrrole-2-carboxylic acid (2-hydroxy-1-phenyl-ethyl)-amide]
4 | 100 to 1000 nM | < 100 nM | Cc1cnc(NCC(C)O)nc1-c1c[nH]c(C(=O)NC(CO)c2ccccc2)c1 (stereo not shown) [III-a-178, 4-[2-(2-Hydroxy-propylamino)-5-methyl-pyrimidin-4-yl]-1H-pyrrole-2-carboxylic acid (2-hydroxy-1-phenyl-ethyl)-amide]
5 | < 100 nM | < 100 nM | Cc1cccc(C(CO)NC(=O)c2cc(-c3nc(Nc4cccc(N(C)C)c4)ncc3C)c[nH]2)c1 (stereo not shown) [III-a-208]
6 | < 100 nM | < 100 nM | Cc1cnc(NCC2CCCO2)nc1-c1c[nH]c(C(=O)NC(CO)c2ccccc2)c1 (stereo not shown) [III-a-217, 4-{5-Methyl-2-((tetrahydro-furan-2-ylmethyl)-amino]-pyrimidin-4-yl}-1H-pyrrole-2-carboxylic acid (2-hydroxy-1-phenyl-ethyl)-amide]
7 | > 1000 nM | > 1000 nM | CCNc1ncc(C)c(-c2c[nH]c(C(=O)NC(CCO)c3ccccc3)c2)n1 (stereo not shown) [III-a-172, 4-(2-Ethylamino-5-methyl-pyrimidin-4-yl)-1H-pyrrole-2-carboxylic acid (3-hydroxy-1-phenyl-propyl)-amide]
8 | < 100 nM |  | COc1cccc(Nc2ncc(C)c(-c3c[nH]c(C(=O)NC(CO)c4ccccc4)c3)n2)c1 (stereo not shown) [III-a-137, 4-[2-(3-Methoxy-phenylamino)-5-methyl-pyrimidin-4-yl]-1H-pyrrole-2-carboxylic acid (2-hydroxy-1-phenyl-ethyl)-amide]
9 | < 100 nM |  | Cc1ccccc1Nc1ncc(C)c(-c2c[nH]c(C(=O)NC(CO)c3cccc(Cl)c3)c2)n1 (stereo not shown) [III-a-224, 4-(5-Methyl-2-o-tolylamino-pyrimidin-4-yl)-1H-pyrrole-2-carboxylic acid [1-(3-chloro-phenyl)-2-hydroxy-ethyl]-amide]
10 | > 1000 nM |  | CCNc1ncc(COC)c(-c2c[nH]c(C(=O)NC(CO)c3ccccc3)c2)n1 (stereo not shown) [III-a-187, 4-(2-Ethylamino-5-methoxymethyl-pyrimidin-4-yl)-1H-pyrrole-2-carboxylic acid (2-hydroxy-1-phenyl-ethyl)-amide]
11 | > 1000 nM |  | CCN(C(=O)c1cc(-c2ccnc(N)n2)c[nH]1)C(C)C(O)c1ccccc1 (stereo not shown) [III-a-181, 4-(2-Amino-pyrimidin-4-yl)-1H-pyrrole-2-carboxylic acid (2-hydroxy-1-methyl-2-phenyl-ethyl)-ethyl-amide]

Row | Compound | Ki (GSK-3β (AA 1–420)) | Ki (ERK2)
12 | Cc1cnc(NC2CCCCC2O)nc1-c1c[nH]c(C(=O)NC(CO)c2ccccc2)c1 (stereo not shown) [III-a-179, 4-[2-(2-Hydroxy-cyclohexylamino)-5-methyl-pyrimidin-4-yl]-1H-pyrrole-2-carboxylic acid (2-hydroxy-1-phenyl-ethyl)-amide] | < 100 nM | < 100 nM
13 | Cc1ccc(Nc2ncc(C)c(-c3c[nH]c(C(=O)NC(CO)c4ccccc4)c3)n2)cc1C (stereo not shown) [III-a-151, 4-[2-(3,4-Dimethyl-phenylamino)-5-methyl-pyrimidin-4-yl]-1H-pyrrole-2-carboxylic acid (2-hydroxy-1-phenyl-ethyl)-amide] | < 100 nM | < 100 nM
